{
  "source": "ChEMBL document CHEMBL4602676",
  "about": "“Discovery and Development of 3-(6-Chloropyridine-3-yloxymethyl)-2-azabicyclo[3.1.0]hexane Hydrochloride (SUVN-911): A Novel, Potent, Selective, and Orally Active Neuronal Nicotinic Acetylcholine α4β2 Receptor Antagonist for the Treatment of Depression” (J Med Chem, 2020)",
  "key": {"Cytochrome P450 1A2": {"molecular_target": "T1, Cytochrome P450 1A2 (Homo sapiens, UniProt P05177)", "T1 sequence (P05177 whole entry)": "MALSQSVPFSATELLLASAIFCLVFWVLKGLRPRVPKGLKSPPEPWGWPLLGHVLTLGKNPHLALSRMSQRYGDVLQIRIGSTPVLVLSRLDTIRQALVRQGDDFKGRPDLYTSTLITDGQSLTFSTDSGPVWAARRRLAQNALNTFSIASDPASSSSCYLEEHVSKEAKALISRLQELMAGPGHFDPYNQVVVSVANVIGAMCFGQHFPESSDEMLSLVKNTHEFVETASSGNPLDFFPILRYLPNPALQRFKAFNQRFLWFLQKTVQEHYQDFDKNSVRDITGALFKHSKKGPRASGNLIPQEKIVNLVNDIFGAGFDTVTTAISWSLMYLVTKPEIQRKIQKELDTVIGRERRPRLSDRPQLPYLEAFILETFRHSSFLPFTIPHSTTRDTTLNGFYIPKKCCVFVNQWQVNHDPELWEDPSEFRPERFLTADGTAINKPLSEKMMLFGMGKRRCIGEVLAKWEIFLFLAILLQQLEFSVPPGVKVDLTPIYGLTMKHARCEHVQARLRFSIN", "test": "Induction of CYP1A2 (unknown origin)", "format": "ADME"}, "[1]": {"test": "Tmax in Beagle dog at 3 mg/kg, po by LC-MS/MS analysis", "format": "ADME, organism-based, Canis lupus familiaris", "settings": "in vivo; call rule not given here"}, "[2]": {"test": "Metabolic stability in human liver microsomes assessed as compound metabolism incubated for 30 mins in presence of NADPH by LC-MS/MS analysis", "format": "ADME, Microsome", "settings": "read-out: Drug metabolism"}, "[3]": {"test": "Genotoxicity in Salmonella typhimurium TA100 in absence of metabolic activation", "format": "toxicity", "settings": "salmonella enterica subsp. enterica serovar typhimurium"}, "[4]": {"test": "Genotoxicity in Salmonella typhimurium TA98 in absence of metabolic activation", "format": "toxicity", "settings": "salmonella enterica subsp. enterica serovar typhimurium"}, "Cytochrome P450 3A4": {"molecular_target": "Cytochrome P450 3A4 (Homo sapiens, UniProt P08684)", "sequence (P08684 whole entry)": "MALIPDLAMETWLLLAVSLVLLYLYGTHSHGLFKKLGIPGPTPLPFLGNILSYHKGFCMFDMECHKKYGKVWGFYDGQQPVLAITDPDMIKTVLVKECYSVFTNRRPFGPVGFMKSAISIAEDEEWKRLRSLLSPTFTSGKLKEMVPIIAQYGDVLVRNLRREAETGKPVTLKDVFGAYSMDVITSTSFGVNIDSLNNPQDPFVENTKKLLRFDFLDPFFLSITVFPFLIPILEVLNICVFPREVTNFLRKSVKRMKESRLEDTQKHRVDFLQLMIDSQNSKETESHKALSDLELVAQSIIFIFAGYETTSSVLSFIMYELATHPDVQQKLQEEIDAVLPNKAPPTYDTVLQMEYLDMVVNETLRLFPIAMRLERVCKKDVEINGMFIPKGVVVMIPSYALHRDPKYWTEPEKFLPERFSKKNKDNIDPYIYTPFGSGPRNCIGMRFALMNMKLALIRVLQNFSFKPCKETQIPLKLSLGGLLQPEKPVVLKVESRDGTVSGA", "test": "Inhibition of CYP3A4 in human liver microsomes using midazolam as substrate incubated for 2 min in presence of NADPH by LC-MS/MS analysis", "format": "ADME"}, "[5]": {"test": "Toxicity in telemetered Beagle dog assessed as change in blood pressure up to 25 mg/kg, po", "format": "organism-based, Canis lupus familiaris", "settings": "in vivo"}, "[6]": {"molecular_target": "Neuronal acetylcholine receptor; alpha4/beta2 (Rattus norvegicus) (UniProt P09483+P12390)", "test": "In vivo receptor occupancy at alpha4beta2 nAChR in Wistar rat pretreated for 15 mins followed by non radiolabelled ZW-104 tracer treatment and measured after 45 mins by LC-MS/MS analysis", "format": "functional, organism-based"}, "Rattus norvegicus [7]": {"system": "Rattus norvegicus", "test": "Antidepressant activity in Wistar rat assessed as reduction in immobility at 3 mg/kg, po administrated for 3 days and measured for 5 mins by forced swim test relative to control", "format": "functional", "parameters": "scale not given: the % may be the effect or the level left"}, "[8]": {"test": "Cmax in Wistar rat at 10 ml/kg, po or 2 ml/kg, iv measured upto 24 hrs by LC-MS/MS analysis", "format": "ADME, organism-based", "settings": "in vivo"}, "[9]": {"test": "Metabolic stability in rat liver microsomes assessed as compound metabolism incubated for 30 mins in presence of NADPH by LC-MS/MS analysis", "format": "ADME, Microsome", "settings": "read-out: Drug metabolism"}, "Cytochrome P450 2D6": {"molecular_target": "Cytochrome P450 2D6 (Homo sapiens, UniProt P10635)", "sequence (P10635 whole entry)": "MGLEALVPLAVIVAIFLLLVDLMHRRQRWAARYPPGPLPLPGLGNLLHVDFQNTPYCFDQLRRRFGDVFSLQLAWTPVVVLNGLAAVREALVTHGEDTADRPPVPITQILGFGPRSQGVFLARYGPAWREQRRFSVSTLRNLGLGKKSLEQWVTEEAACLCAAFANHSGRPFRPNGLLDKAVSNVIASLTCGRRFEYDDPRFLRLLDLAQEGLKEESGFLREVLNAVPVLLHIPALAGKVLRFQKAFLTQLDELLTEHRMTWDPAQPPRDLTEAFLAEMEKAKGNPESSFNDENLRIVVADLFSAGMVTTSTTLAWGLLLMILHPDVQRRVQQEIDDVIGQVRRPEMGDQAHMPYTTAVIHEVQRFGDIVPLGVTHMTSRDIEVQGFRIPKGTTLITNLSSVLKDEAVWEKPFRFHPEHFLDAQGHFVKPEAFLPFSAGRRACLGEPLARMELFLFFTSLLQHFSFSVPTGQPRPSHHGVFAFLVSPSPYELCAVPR", "test": "Inhibition of CYP2D6 in human liver microsomes using dextromethorphan as substrate incubated for 12 min in presence of NADPH by LC-MS/MS analysis", "format": "ADME"}, "Cytochrome P450 2B6": {"molecular_target": "T2, Cytochrome P450 2B6 (Homo sapiens, UniProt P20813)", "T2 sequence (P20813 whole entry)": "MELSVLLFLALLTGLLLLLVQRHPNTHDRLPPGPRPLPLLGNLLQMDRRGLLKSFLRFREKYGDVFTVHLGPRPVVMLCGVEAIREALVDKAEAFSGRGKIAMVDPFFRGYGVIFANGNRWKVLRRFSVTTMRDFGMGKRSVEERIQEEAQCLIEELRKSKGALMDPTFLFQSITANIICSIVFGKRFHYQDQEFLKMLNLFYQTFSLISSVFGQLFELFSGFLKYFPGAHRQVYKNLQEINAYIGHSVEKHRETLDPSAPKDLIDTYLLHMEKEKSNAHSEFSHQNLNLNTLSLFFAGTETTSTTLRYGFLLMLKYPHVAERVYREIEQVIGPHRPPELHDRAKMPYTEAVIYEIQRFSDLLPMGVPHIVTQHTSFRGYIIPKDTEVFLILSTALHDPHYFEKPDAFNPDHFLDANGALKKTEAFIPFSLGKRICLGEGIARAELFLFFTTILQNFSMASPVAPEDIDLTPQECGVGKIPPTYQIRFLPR", "test": "Induction of CYP2B6 (unknown origin)", "format": "ADME"}, "[10]": {"molecular_target": "Neuronal acetylcholine receptor; alpha4/beta2 (Rattus norvegicus, UniProt P09483+P12390)", "sequence (P09483 whole entry)": "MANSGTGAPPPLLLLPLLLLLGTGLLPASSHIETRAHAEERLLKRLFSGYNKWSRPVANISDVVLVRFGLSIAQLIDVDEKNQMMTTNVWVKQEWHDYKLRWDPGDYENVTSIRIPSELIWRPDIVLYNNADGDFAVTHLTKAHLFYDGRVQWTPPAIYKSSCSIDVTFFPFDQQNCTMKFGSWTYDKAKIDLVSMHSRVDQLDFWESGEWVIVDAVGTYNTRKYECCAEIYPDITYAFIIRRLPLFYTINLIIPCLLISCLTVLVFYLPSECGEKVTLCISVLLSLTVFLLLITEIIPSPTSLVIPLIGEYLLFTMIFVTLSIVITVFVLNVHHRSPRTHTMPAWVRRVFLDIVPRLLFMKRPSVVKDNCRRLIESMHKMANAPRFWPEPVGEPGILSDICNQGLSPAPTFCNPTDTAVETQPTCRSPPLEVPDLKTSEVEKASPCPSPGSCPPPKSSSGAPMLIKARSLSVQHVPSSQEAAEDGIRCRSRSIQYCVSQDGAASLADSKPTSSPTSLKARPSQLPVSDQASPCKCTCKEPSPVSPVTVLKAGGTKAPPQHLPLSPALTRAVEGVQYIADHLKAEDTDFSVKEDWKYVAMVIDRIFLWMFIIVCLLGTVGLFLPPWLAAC", "sequence (P12390 whole entry)": "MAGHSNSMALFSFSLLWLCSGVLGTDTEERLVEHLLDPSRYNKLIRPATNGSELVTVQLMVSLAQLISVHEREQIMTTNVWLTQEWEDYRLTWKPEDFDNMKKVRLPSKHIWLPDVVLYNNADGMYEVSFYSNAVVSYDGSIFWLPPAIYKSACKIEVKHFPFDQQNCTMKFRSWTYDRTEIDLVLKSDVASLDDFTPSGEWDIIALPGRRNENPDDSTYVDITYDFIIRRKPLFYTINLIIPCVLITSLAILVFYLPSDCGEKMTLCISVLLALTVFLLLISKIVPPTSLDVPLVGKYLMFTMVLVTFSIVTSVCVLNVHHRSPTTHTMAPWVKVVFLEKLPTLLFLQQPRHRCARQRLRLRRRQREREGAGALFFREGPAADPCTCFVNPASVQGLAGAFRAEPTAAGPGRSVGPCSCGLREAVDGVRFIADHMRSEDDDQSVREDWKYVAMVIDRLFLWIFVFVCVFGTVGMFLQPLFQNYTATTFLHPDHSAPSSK", "test": "In vivo receptor occupancy at alpha4beta2 nAChR in Wistar rat assessed as brain concentration pretreated for 15 mins followed by non radiolabelled ZW-104 tracer treatment and measured after 45 mins by LC-MS/MS analysis", "format": "functional, organism-based"}, "[11]": {"molecular_target": "T3, Solute carrier family 22 member 2 (Homo sapiens, UniProt O15244)", "T3 sequence (O15244 whole entry)": "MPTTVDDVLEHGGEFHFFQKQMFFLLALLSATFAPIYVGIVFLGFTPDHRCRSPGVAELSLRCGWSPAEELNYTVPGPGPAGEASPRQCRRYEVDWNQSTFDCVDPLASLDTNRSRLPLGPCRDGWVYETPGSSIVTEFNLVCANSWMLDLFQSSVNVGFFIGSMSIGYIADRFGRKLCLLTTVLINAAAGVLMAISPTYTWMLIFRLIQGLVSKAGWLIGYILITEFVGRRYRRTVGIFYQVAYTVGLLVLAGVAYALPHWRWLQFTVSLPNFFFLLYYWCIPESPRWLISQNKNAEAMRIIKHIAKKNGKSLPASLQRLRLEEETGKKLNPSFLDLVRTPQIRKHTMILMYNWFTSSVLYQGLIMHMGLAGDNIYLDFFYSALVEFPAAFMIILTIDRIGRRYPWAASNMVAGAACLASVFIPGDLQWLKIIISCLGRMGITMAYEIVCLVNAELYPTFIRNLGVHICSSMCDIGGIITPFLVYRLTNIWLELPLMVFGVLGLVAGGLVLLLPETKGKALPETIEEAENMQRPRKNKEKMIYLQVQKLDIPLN", "test": "Inhibition of OCT2 (unknown origin)"}, "Bone marrow cell": {"system": "Bone marrow cell", "test": "Genotoxicity in mouse bone marrow cells assessed as non clastogenic by micronucleus assay", "format": "toxicity, cell-based"}, "[12]": {"test": "Half life in Wistar rat at 10 ml/kg, po or 2 ml/kg, iv measured upto 24 hrs by LC-MS/MS analysis", "format": "ADME, organism-based", "settings": "in vivo"}, "[13]": {"test": "Volume of distribution in Beagle dog at 1 mg/kg, iv by LC-MS/MS analysis", "format": "ADME, organism-based, Canis lupus familiaris", "settings": "in vivo"}, "Rattus norvegicus [14]": {"system": "Rattus norvegicus", "test": "Antidepressant activity in Wistar rat assessed as reduction in immobility at 1 mg/kg, po administrated for 3 days and measured for 5 mins by forced swim test relative to control", "format": "functional", "parameters": "scale not given: the % may be the effect or the level left"}, "[15]": {"test": "AUC in Wistar rat at 10 ml/kg, po or 2 ml/kg, iv measured upto 24 hrs by LC-MS/MS analysis", "format": "ADME, organism-based", "settings": "in vivo"}, "[16]": {"molecular_target": "Voltage-gated inwardly rectifying potassium channel KCNH2 (Homo sapiens, UniProt Q12809)", "sequence (Q12809 whole entry)": "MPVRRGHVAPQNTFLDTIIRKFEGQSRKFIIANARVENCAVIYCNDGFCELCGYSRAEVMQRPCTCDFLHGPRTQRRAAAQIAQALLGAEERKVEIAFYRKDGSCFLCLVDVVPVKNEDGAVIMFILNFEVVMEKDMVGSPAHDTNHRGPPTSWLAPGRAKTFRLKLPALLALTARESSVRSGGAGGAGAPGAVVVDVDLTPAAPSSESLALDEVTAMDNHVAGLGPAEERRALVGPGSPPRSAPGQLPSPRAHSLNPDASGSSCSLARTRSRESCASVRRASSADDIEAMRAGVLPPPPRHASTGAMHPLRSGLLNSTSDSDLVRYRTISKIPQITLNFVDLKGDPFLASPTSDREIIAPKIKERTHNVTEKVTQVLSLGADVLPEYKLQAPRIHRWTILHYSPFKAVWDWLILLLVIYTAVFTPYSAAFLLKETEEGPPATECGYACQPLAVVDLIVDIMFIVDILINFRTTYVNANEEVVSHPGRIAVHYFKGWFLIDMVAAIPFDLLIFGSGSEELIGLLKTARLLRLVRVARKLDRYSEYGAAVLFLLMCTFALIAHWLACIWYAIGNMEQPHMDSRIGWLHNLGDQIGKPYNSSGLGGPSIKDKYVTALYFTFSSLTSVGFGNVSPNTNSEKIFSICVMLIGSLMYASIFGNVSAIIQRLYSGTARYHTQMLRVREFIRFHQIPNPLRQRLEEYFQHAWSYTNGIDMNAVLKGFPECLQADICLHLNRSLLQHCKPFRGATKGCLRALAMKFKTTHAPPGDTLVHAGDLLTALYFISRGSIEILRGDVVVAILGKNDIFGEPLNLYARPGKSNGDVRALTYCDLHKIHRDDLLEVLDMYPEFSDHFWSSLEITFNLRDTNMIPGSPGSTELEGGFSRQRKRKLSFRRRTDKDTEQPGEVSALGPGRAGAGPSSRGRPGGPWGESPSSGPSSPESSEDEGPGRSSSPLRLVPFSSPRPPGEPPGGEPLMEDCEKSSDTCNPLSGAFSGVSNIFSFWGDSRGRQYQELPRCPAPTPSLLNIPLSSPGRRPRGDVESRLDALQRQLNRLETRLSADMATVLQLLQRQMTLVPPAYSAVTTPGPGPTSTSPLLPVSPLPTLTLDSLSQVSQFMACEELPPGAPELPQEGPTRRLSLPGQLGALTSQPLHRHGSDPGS", "test": "Inhibition of recombinant human ERG expressed in HEK293 at -80 mV holding potential by whole-cell patch clamp method", "format": "cell-based"}},
  "data": [
    {"smiles": "Cl.Clc1ccc(OC[C@@H]2C[C@H]3C[C@H]3N2)cn1", "values": [
      {"measurement": "Activity", "setting": "Cytochrome P450 1A2", "value": "Not Active"},
      {"measurement": "Tmax", "setting": "[1]", "value": 0.3, "unit": "h"},
      {"measurement": "metabolised at 0.5 h", "setting": "[2]", "value": 33.4, "unit": "%"},
      {"measurement": "Activity", "setting": "[3]", "value": "Non-Toxic"},
      {"measurement": "Activity", "setting": "[4]", "value": "Non-Toxic"},
      {"measurement": "IC50", "setting": "Cytochrome P450 3A4", "value": "> 45", "unit": "µM"},
      {"measurement": "Activity", "setting": "[5]", "value": "Non-Toxic"},
      {"measurement": "Activity", "setting": "[6]", "value": "Dose-dependent effect"},
      {"measurement": "ED50", "setting": "[6]", "value": 1.61, "unit": "µM"},
      {"measurement": "Activity", "setting": "Rattus norvegicus [7]", "value": 35.81, "unit": "%"},
      {"measurement": "Cmax", "setting": "[8]", "value": 1910, "unit": "ng/mL"},
      {"measurement": "metabolised at 0.5 h", "setting": "[9]", "value": 32.2, "unit": "%"},
      {"measurement": "IC50", "setting": "Cytochrome P450 2D6", "value": 38.1, "unit": "µM"},
      {"measurement": "Activity", "setting": "Cytochrome P450 2B6", "value": "Not Active"},
      {"measurement": "EC50", "setting": "[10]", "value": 334, "unit": "µM"},
      {"measurement": "inhibition (INH)", "setting": "[11]", "value": "Not Active"},
      {"measurement": "Activity", "setting": "Bone marrow cell", "value": "Non-Toxic"},
      {"measurement": "half-life", "setting": "[12]", "value": 3.34, "unit": "h"},
      {"measurement": "Vd", "setting": "[13]", "value": 1.3, "unit": "L/kg"},
      {"measurement": "Activity", "setting": "Rattus norvegicus [14]", "value": 29.35, "unit": "%"},
      {"measurement": "AUC at 24 h", "setting": "[15]", "value": 3510, "unit": "ng·h/mL"},
      {"measurement": "IC50", "setting": "[16]", "value": "> 10", "unit": "µM"}
    ]}
  ]
}
